The supplement of paper PMC11451515

Key:
Conditions in all cases: 48 h
SEM cells [1] = test: AUC of viability dose-response curve (% viability x log10 dose units); higher = less sensitive
How it was run: (§1)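 Leukemia cells adapted to each medium were seeded at 500 or 1000 cells/well in 1536-well plates and dosed with library compounds in DMSO at 11 threefold doses from 47 μM to 0.79 nM for 48 h at 37°C. CellTiter-Glo One luminescence was normalised per plate to DMSO and cell-free wells, then fitted with a four-parameter log-logistic model over log10 doses. Area under the curve was taken from this fit by the trapezoidal rule, with curves above full viability scaled and curves failing quality control removed.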

P12-Ichikawa [2] = test: as above
How it was run: as §1

NOMO1 [3] = test: as above
How it was run: as §1

SEM cells [4] = test: cell viability relative to DMSO control; higher = less cytotoxic
How it was run: (§2)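 Three leukemia lines were tested: NOMO1 and SEM at 500 cells/well and P12-Ichikawa at 1000 cells/well. Each was adapted for at least four passages in each medium and seeded in 5 μl in 1536-well plates, and library compounds in DMSO were pin-dosed from 47 μM to 0.79 nM in 11 threefold steps. After 48 h at 37°C, CellTiter-Glo One luminescence was read. Viability is a percentage relative to DMSO wells on each plate, with cell-free wells as background.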

P12-Ichikawa [5] = test: as above
How it was run: as §2

NOMO1 [6] = test: as above
How it was run: as §2

C[C@H]1C[C@H]2[C@@H]3CCC4=CC(=O)C=C[C@]4(C)[C@H]3C(=O)C[C@]2(C)[C@@]1(O)C(=O)CO
AUC of viability dose-response curve
Conditions | NOMO1 [3] | P12-Ichikawa [2] | SEM cells [1]
HPLM + 10% dialyzed FBS | 442 | 443 | 390
RPMI 5 mM glucose + 10% FBS | 407 | 454 | 366
RPMI 5 mM glucose + 10% dialyzed FBS | 394 | 402 | 401

cell viability [%]
Conditions | NOMO1 [6] | P12-Ichikawa [5] | SEM cells [4]
HPLM + 10% dialyzed FBS, 0.000781 µM | 89.9 | 91.4 | 77
HPLM + 10% dialyzed FBS, 0.00234 µM | 80.3 | 96.5 | 81.5
HPLM + 10% dialyzed FBS, 0.00702 µM | 81.2 | 93.1 | 77.8
HPLM + 10% dialyzed FBS, 0.0211 µM | 103 | 95.6 | 88.9
HPLM + 10% dialyzed FBS, 0.0632 µM | 86.3 | 88 | 70.6
HPLM + 10% dialyzed FBS, 0.19 µM | 109 | 92.7 | 99.8
HPLM + 10% dialyzed FBS, 0.569 µM | 98.9 | 87.6 | 96.5
HPLM + 10% dialyzed FBS, 1.71 µM | 96 | 94.8 | 92.7
HPLM + 10% dialyzed FBS, 5.12 µM | 86.8 | 88.3 | 88.7
HPLM + 10% dialyzed FBS, 15.4 µM | 99.8 | 101 | 81.9
HPLM + 10% dialyzed FBS, 46.1 µM | 83 | 93 | 9.17
RPMI 5 mM glucose + 10% FBS, 0.000781 µM | 82.7 | 91.3 | 82.3
RPMI 5 mM glucose + 10% FBS, 0.00234 µM | 90.2 | 98.1 | 81.3
RPMI 5 mM glucose + 10% FBS, 0.00702 µM | 86.9 | 94 | 90.3
RPMI 5 mM glucose + 10% FBS, 0.0211 µM | 91.6 | 90.7 | 78.8
RPMI 5 mM glucose + 10% FBS, 0.0632 µM | 80.8 | 94.7 | 72.5
RPMI 5 mM glucose + 10% FBS, 0.19 µM | 79.9 | 99.7 | 87
RPMI 5 mM glucose + 10% FBS, 0.569 µM | 81.3 | 94.9 | 92.5
RPMI 5 mM glucose + 10% FBS, 1.71 µM | 83.8 | 97.2 | 91.7
RPMI 5 mM glucose + 10% FBS, 5.12 µM | 86.5 | 100 | 71.3
RPMI 5 mM glucose + 10% FBS, 15.4 µM | 86.3 | 95.7 | 58.5
RPMI 5 mM glucose + 10% FBS, 46.1 µM | 92.2 | 85.3 | 7.21
RPMI 5 mM glucose + 10% dialyzed FBS, 0.000781 µM | 83 | 83.7 | 93.2
RPMI 5 mM glucose + 10% dialyzed FBS, 0.00234 µM | 78.4 | 91.7 | 85.2
RPMI 5 mM glucose + 10% dialyzed FBS, 0.00702 µM | 77.9 | 80.1 | 83.4
RPMI 5 mM glucose + 10% dialyzed FBS, 0.0211 µM | 56.5 | 89.7 | 91.1
RPMI 5 mM glucose + 10% dialyzed FBS, 0.0632 µM | 78.8 | 84 | 77.5
RPMI 5 mM glucose + 10% dialyzed FBS, 0.19 µM | 82.4 | 85.6 | 101
RPMI 5 mM glucose + 10% dialyzed FBS, 0.569 µM | 99.8 | 82.7 | 93.6
RPMI 5 mM glucose + 10% dialyzed FBS, 1.71 µM | 85.1 | 83.7 | 97.6
RPMI 5 mM glucose + 10% dialyzed FBS, 5.12 µM | 94.4 | 82.2 | 85.4
RPMI 5 mM glucose + 10% dialyzed FBS, 15.4 µM | 78 | 85.6 | 74.4
RPMI 5 mM glucose + 10% dialyzed FBS, 46.1 µM | 93.2 | 70.5 | 7.99

COc1ccccc1OCCNCC(O)COc1cccc2[nH]c3ccccc3c12 (stereo not given)
AUC of viability dose-response curve
Conditions | NOMO1 [3] | P12-Ichikawa [2] | SEM cells [1]
HPLM + 10% dialyzed FBS | 476 | 461 | 467
RPMI 5 mM glucose + 10% FBS | 465 | 468 | 463
RPMI 5 mM glucose + 10% dialyzed FBS | 474 | 468 | 467

cell viability [%]
Conditions | NOMO1 [6] | P12-Ichikawa [5] | SEM cells [4]
HPLM + 10% dialyzed FBS, 0.000781 µM | 132 | 121 | 114
HPLM + 10% dialyzed FBS, 0.00234 µM | 124 | 124 | 131
HPLM + 10% dialyzed FBS, 0.00702 µM | 116 | 124 | 105
HPLM + 10% dialyzed FBS, 0.0211 µM | 121 | 118 | 126
HPLM + 10% dialyzed FBS, 0.0632 µM | 123 | 119 | 115
HPLM + 10% dialyzed FBS, 0.19 µM | 131 | 117 | 123
HPLM + 10% dialyzed FBS, 0.569 µM | 139 | 122 | 124
HPLM + 10% dialyzed FBS, 1.71 µM | 117 | 119 | 134
HPLM + 10% dialyzed FBS, 5.12 µM | 139 | 109 | 115
HPLM + 10% dialyzed FBS, 15.4 µM | 123 | 113 | 113
HPLM + 10% dialyzed FBS, 46.1 µM | 116 | 100 | 87.3
RPMI 5 mM glucose + 10% FBS, 0.000781 µM | 116 | – | 107
RPMI 5 mM glucose + 10% FBS, 0.00234 µM | 112 | – | 114
RPMI 5 mM glucose + 10% FBS, 0.00702 µM | 114 | – | 98.6
RPMI 5 mM glucose + 10% FBS, 0.0211 µM | 119 | – | 118
RPMI 5 mM glucose + 10% FBS, 0.0632 µM | 112 | – | 125
RPMI 5 mM glucose + 10% FBS, 0.19 µM | 103 | – | 123
RPMI 5 mM glucose + 10% FBS, 0.569 µM | 113 | – | 121
RPMI 5 mM glucose + 10% FBS, 1.71 µM | 113 | – | 133
RPMI 5 mM glucose + 10% FBS, 5.12 µM | 118 | – | 124
RPMI 5 mM glucose + 10% FBS, 15.4 µM | 113 | – | 96.3
RPMI 5 mM glucose + 10% FBS, 46.1 µM | 102 | – | 91.6
RPMI 5 mM glucose + 10% dialyzed FBS, 0.000781 µM | 123 | 119 | 115
RPMI 5 mM glucose + 10% dialyzed FBS, 0.00234 µM | 120 | 115 | 117
RPMI 5 mM glucose + 10% dialyzed FBS, 0.00702 µM | 119 | 119 | 91.8
RPMI 5 mM glucose + 10% dialyzed FBS, 0.0211 µM | 132 | 119 | 119
RPMI 5 mM glucose + 10% dialyzed FBS, 0.0632 µM | 114 | 122 | 120
RPMI 5 mM glucose + 10% dialyzed FBS, 0.19 µM | 128 | 122 | 132
RPMI 5 mM glucose + 10% dialyzed FBS, 0.569 µM | 144 | 115 | 119
RPMI 5 mM glucose + 10% dialyzed FBS, 1.71 µM | 118 | 124 | 128
RPMI 5 mM glucose + 10% dialyzed FBS, 5.12 µM | 129 | 112 | 118
RPMI 5 mM glucose + 10% dialyzed FBS, 15.4 µM | 124 | 112 | 107
RPMI 5 mM glucose + 10% dialyzed FBS, 46.1 µM | 112 | 99.6 | 93.5
